Assay results: the supplement of paper PMC10307832

Columns and labels:
Assay in all cases: relative viability (nuclei count vs DMSO), 5 days (fraction); higher = more cells survive
201T = system: 201T
How it was run: (§1)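 Lung cancer cell lines in 1536-well plates were dosed by pin tool the day after seeding, either with one drug alone or with a fixed anchor-drug dose plus five library-drug doses (not always all listed) in √10 steps. After 5 days, cells were fixed and their nuclei stained in one step (final 0.05% Triton X-100, 1% formaldehyde, 1 ug/ml Hoechst), then counted on 4× images. Relative viability is the nuclei count in treated wells divided by that in vehicle wells. Values are medians of duplicate plates.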

BEN = system: BEN
How it was run: as §1

COR-L 105 = system: COR-L 105
How it was run: as §1

EKVX = system: EKVX
How it was run: as §1

EPLC-272H = system: EPLC-272H
How it was run: as §1

H3255 = system: H3255
How it was run: as §1

HCC-44 = system: HCC-44
How it was run: as §1

HCC-827 = system: HCC-827
How it was run: as §1

HOP-62 = system: HOP-62
How it was run: as §1

LCLC-97TM1 = system: LCLC-97TM1
How it was run: as §1

LOU-NH91 = system: LOU-NH91
How it was run: as §1

In the case of `NC(=O)Nc1cc(-c2cccc(F)c2)sc1C(=O)N[C@H]1CCCNC1` [AZD7762] + CC1(C)CCC(c2ccc(Cl)cc2)=C(CN2CCN(c3ccc(C(=O)NS(=O)(=O)c4ccc(N[C@H](CCN5CCOCC5)CSc5ccccc5)c(S(=O)(=O)C(F)(F)F)c4)cc3)CC2)C1 [Navitoclax] (partner 0.5 µM), the relative viability (201T; first compound 0.01 µM) is reported as 1.18, the relative viability (201T; first compound 0.03162 µM) is reported as 1.23 and the relative viability (201T; first compound 0.1 µM) is reported as 1.21. It also gave a relative viability (201T; first compound 0.3162 µM) of 1.25, a relative viability (201T; first compound 1 µM) of 1.27 and a relative viability (BEN; first compound 0.01 µM) of 0.0635. For the same molecule, the relative viability (BEN; first compound 0.03162 µM) was 0.0616, the relative viability (BEN; first compound 0.1 µM) was 0.0641 and the relative viability (BEN; first compound 0.3162 µM) was 0.0656. It also gave a relative viability (BEN; first compound 1 µM) of 0.0695, a relative viability (COR-L 105; first compound 0.01 µM) of 0.694 and a relative viability (COR-L 105; first compound 0.03162 µM) of 0.768. For the same molecule, the relative viability (COR-L 105; first compound 0.1 µM) was 0.671, the relative viability (COR-L 105; first compound 0.3162 µM) was 0.527 and the relative viability (COR-L 105; first compound 1 µM) was 0.463. For the same molecule, the relative viability (EKVX; first compound 0.01 µM) was 0.954, the relative viability (EKVX; first compound 0.03162 µM) was 0.863 and the relative viability (EKVX; first compound 0.1 µM) was 0.918. For the same molecule, the relative viability (EKVX; first compound 0.3162 µM) was 0.596, the relative viability (EKVX; first compound 1 µM) was 0.574 and the relative viability (EPLC-272H; first compound 0.01 µM) was 1.17. It also gave a relative viability (EPLC-272H; first compound 0.03162 µM) of 1.18, a relative viability (EPLC-272H; first compound 0.1 µM) of 1.15 and a relative viability (EPLC-272H; first compound 0.3162 µM) of 1.37. The relative viability (EPLC-272H; first compound 1 µM) was 0.783, the relative viability (H3255; first compound 0.01 µM) was 0.51 and the relative viability (H3255; first compound 0.03162 µM) was 0.509. The relative viability (H3255; first compound 0.1 µM) was 0.526, the relative viability (H3255; first compound 0.3162 µM) was 0.524 and the relative viability (H3255; first compound 1 µM) was 0.448. It also gave a relative viability (HCC-44; first compound 0.01 µM) of 1.1, a relative viability (HCC-44; first compound 0.03162 µM) of 0.933 and a relative viability (HCC-44; first compound 0.1 µM) of 1.01. The relative viability (HCC-44; first compound 0.3162 µM) was 0.901, the relative viability (HCC-44; first compound 1 µM) was 1.01 and the relative viability (HCC-827; first compound 0.01 µM) was 1. For the same molecule, the relative viability (HCC-827; first compound 0.03162 µM) was 0.918, the relative viability (HCC-827; first compound 0.1 µM) was 0.991 and the relative viability (HCC-827; first compound 0.3162 µM) was 0.94. The relative viability (HCC-827; first compound 1 µM) was 0.93, the relative viability (HOP-62; first compound 0.01 µM) was 1.2 and the relative viability (HOP-62; first compound 0.03162 µM) was 1.03. It also gave a relative viability (HOP-62; first compound 0.1 µM) of 1.19, a relative viability (HOP-62; first compound 0.3162 µM) of 1.16 and a relative viability (HOP-62; first compound 1 µM) of 0.969. The relative viability (LCLC-97TM1; first compound 0.01 µM) was 0.343, the relative viability (LCLC-97TM1; first compound 0.03162 µM) was 0.517 and the relative viability (LCLC-97TM1; first compound 0.1 µM) was 0.51. The relative viability (LCLC-97TM1; first compound 0.3162 µM) was 0.457, the relative viability (LCLC-97TM1; first compound 1 µM) was 0.237 and the relative viability (LOU-NH91; first compound 0.01 µM) was 0.753. It also gave a relative viability (LOU-NH91; first compound 0.03162 µM) of 0.673.
